Data as given in patent US5312816A, “Method of combatting osteoporosis in mammalian subjects, utilizing organic boron compounds” (priority 1993, dated 1994).
pIC50: −log10 of the molar value. Where two headings read alike, the source gives them in different places.

Assays:
Cathepsin D [1] = biological target: T1, Cathepsin D (Mus musculus, UniProt P18242); test: Mouse hepatic lysosomal cathepsin D activity; type: biochemical
T1 construct: azocasein assay pH 5.0
Source text: (§1) 1. Cf1 male mouse hepatic 10% homogenates in 0.25M sucrose+0.001MEDTA,pH 7.2.
(§2) Lysosomal Enzymes - free and total [triton X-100].
(§3) 2. Acid Cathepsin D -azocasein-pH 5.0, hydrolytic azo-peptide produce 366 nm.
Cathepsin azo casein activity -

Cf1 male mice [2] = test: Anti-inflammatory screen, Winter's test, 2% carrageenan hind foot; type: in vivo; conditions: for Anti-inflammatory: Table 1, drugs 8 or 10 mg/kg I.P. 2X, Indomethacin 10 mg/kg
Method: Anti-inflammatory Screen- Cf1 - male mice-Winter's Test 2% carrageenan S.C. plantar surface of hind foot, drugs administered @8 or 10 mg/kg I.P. 2X
Winter, C.A., et al, Proc. Soc.

in vivo = conditions: mouse, Table 1, N=6
Method: Amine borane compounds (0 to 100 mg/kg) were administered to CF1 male mice as a single injection with six mice for each dosage. Mice were weighed daily and the number of deaths was recorded each day for a 14 day period. The LD50 value was determined by the procedure of S.C. Gad and C.S. Weil, "Statistics for Toxicologists" in Principles and Methods of Toxicology, A.W. Hayes, Ed., 2nd Edition, P 435-483 Raven Press, New York 1982.

Cathepsin = biological target: T2, Cathepsin (Rattus norvegicus, UniProt P24268); test: Rat PMNs cathepsin activity; type: cell-based; conditions: pH 5; 5 × 10^-6 M, N=6; read-out: Rat PMNs Cathep.
T2 construct: azocasein assay pH 5.0
T2 sequence (P24268 65-407): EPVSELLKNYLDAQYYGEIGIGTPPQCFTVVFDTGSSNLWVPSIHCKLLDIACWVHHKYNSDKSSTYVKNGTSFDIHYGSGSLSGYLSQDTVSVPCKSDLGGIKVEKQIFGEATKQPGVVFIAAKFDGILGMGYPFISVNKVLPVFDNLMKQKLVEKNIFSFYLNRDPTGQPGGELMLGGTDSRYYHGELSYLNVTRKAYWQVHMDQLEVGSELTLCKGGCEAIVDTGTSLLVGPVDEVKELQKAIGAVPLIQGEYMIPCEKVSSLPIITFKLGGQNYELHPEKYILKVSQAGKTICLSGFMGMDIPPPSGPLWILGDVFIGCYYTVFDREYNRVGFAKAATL
Source text: (§4) 2. PMNs-polymorphonuclear neutrophils-rat peritoneal cavity 0.5% oyster glycogen.
as §3

Cf1 male mice [3] = test: Writhing reflex, 0.6% acetic acid; type: in vivo; conditions: Table 1; Indomethacin 10 mg/kg
Method: Writhing reflex- Cf1 -male mice- 0.6% acetic acid I.P. drugs administered @20 mg/kg/ I.P. 20 min. later - the # of stretches/10 min.
Hendershot, L.C., et al, J.

Sprague Dawley male rats = test: Chronic adjuvant arthritis screen, Mycobacterium butyricum; type: in vivo; conditions: Table 1; Indomethacin 10 mg/kg
cAMP = test: PMNs cAMP levels, Gilman's radioimmune assay; type: cell-based, rat; conditions: 5 × 10^-6 M, N=6
Source text: as §4
cAMP levels Gilman's radioimmune assay. ^3 H(G)Cyclic-3', 5'-adenosine monophosphate.

Acid phosphatase [4] = test: Rat PMNs acid phosphatase activity; type: cell-based; conditions: 5 × 10^-6 M, N=6; 5 µM
Source text: as §4
(§5) 1. Acid phosphatase -beta glycerol-3-phosphate, pH 5.0, released IP 720 nm.

Acid phosphatase [5] = test: Mouse hepatic lysosomal acid phosphatase activity; type: biochemical; conditions: 5 × 10^-6 M, N=6; 5 µM
Source text: as §1, §2, §5
Acid phosphatase activity -

Cathepsin D [6] = biological target: T3, Cathepsin D (Homo sapiens, UniProt P07339); test: Human osteoporosis fibroblasts cathepsin D (azo-casein) activity; type: cell-based; conditions: Table X; human osteoporosis fibroblasts, DMEM +10% FCS + P/S; read-out: Cathepsin D IC50
T3 construct: azocasein assay pH 5.0
T3 sequence (P07339 65-412): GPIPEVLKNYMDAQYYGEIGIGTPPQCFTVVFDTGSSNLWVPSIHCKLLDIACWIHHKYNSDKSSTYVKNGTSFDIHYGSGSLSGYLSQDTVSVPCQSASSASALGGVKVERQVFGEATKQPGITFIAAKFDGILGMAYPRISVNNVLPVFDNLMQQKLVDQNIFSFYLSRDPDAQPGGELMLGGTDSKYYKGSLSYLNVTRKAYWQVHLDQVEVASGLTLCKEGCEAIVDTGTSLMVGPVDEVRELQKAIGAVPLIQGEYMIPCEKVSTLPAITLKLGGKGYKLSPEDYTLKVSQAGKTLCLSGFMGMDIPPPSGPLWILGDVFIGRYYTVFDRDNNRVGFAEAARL
Source text: Osteoporosis Human Fibroblast-CRL-1140, Be SA1

Elastase [7] = test: Mouse macrophage elastase activity; type: cell-based; conditions: Table VIII; mouse macrophages, 60 min incubation; read-out: Elastase IC50
Aryl sulphatase [8] = test: Mouse macrophage aryl sulphatase activity; type: cell-based; conditions: Table VII; mouse macrophage cultured cells, 60 min incubation; read-out: Aryl Sulphatase IC50
Sprague Dawley Rats = test: Anti-inflammatory activity in Sprague Dawley rats; type: in vivo; conditions: Table IV; 8 mg/kg I.P.
Acid phosphatase [9] = test: Mouse macrophage acid phosphatase activity; type: cell-based; conditions: Table VII; mouse macrophage cultured cells, 60 min incubation; read-out: Acid Phosphatase IC50
[10] = test system: Prostaglandin cyclooxygenase; test: Mouse macrophage prostaglandin cyclooxygenase activity; type: cell-based; conditions: Table VIII; mouse macrophages, 60 min incubation; read-out: Prostaglandin Cyclooxygenase IC50
Source text: (§6) 3. Mouse macrophages J774A.1 BALB/c
Prostaglandin synthetase purified beef seminal vesicle ^3 H arachidonic acid (86.2 Ci/mmol), tlc separation.

Trypsin [11] = test: Mouse macrophage trypsin (BAEE) activity; type: cell-based; conditions: Table VIII; mouse macrophages, 60 min incubation; read-out: Trypsin BAEE IC50
Trypsin [12] = test: Human osteoporosis fibroblasts trypsin (BAEE) activity; type: cell-based; conditions: Table XI; human osteoporosis fibroblasts, 60 min incubation; read-out: Trypsin BAEE IC50
Source text: 1. Trypsin- N-benzoyl-L-arginine ethyl ester pH 8.0, hydrolytic product 253 nm.

Aryl sulphatase [13] = test: Human osteoporosis fibroblasts aryl sulphatase activity; type: cell-based; conditions: Table X; human osteoporosis fibroblasts; read-out: Aryl Sulphatase IC50
Source text: 3. Aryl sulphatase- p-nitrocatechol sulfate, pH
5. 8 p-nitro-catechol product 510 nm.

[14] = test system: Prostaglandin cyclooxygenase; test: Human osteoporosis fibroblasts prostaglandin cyclooxygenase activity; type: cell-based; conditions: Table XI, 60 min incubation, read-out: Prostaglandin Cyclooxygense IC50
Cf1 male mice [15] = test: Writhing reflex, 0.6% acetic acid; type: in vivo; conditions: Table IV, 8 mg/kg I.P.
Acid phosphatase [16] = test: Human osteoporosis fibroblasts acid phosphatase activity; type: cell-based; conditions: Table X; human osteoporosis fibroblasts; read-out: Acid Phosphatase IC50
Source text: as §5

5'-lipoxygenase = biological target: T4, 5'-lipoxygenase (Mus musculus, UniProt P48999); test: Mouse hepatic 5'-lipoxygenase activity; type: biochemical; conditions: Table VI; mouse hepatic, 60 min incubation; read-out: 5'-lipoxygenase IC50
T4 construct: Cf1 male mouse hepatic 10% homogenates; from tissue; host or cells: CF1 male mouse liver, 10% homogenate
T4 sequence (P48999 1-674): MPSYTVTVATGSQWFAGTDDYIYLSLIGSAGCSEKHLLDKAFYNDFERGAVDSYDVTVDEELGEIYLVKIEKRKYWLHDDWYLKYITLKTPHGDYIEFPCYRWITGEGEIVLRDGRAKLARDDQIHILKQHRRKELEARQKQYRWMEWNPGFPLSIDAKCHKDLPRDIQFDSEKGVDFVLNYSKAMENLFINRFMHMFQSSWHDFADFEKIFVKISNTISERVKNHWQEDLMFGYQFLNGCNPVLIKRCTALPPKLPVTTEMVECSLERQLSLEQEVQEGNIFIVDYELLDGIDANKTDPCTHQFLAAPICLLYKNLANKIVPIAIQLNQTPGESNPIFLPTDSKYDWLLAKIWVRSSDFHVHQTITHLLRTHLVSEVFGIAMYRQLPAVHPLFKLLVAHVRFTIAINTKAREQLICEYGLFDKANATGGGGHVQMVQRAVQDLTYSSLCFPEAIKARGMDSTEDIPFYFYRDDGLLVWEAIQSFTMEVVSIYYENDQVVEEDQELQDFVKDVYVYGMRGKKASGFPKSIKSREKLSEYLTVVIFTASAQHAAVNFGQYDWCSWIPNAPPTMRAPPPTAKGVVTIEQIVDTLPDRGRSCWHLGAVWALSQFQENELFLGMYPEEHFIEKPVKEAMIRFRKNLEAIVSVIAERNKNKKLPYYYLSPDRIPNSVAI
Source text: as §1
5'-lipoxygenase Mylari, B.L., et al, J. Med.

Elastase [17] = test: Human osteoporosis fibroblasts elastase activity; type: cell-based; conditions: Table XI; human osteoporosis fibroblasts, 60 min incubation; read-out: Elastase IC50
Source text: 2. Elastase- N-succinyl-L-alanyl-L-alanine-p-nitroanilide, pH 8.0, p-nitro anilide 410 nm.

Cathepsin D [18] = biological target: T1, Cathepsin D; test: Mouse macrophage cathepsin D activity; type: cell-based; conditions: Table VII; mouse macrophage cultured cells, DMEM +10% FCS +P/S, 60 min incubation; read-out: Cathepsin D IC50
Source text: as §6, §3

[19] = test system: Hepatic oxidative phosphorylation; test: Hepatic oxidative phosphorylation, Gilson oxygraph; type: biochemical, mouse; conditions: 10^-6 M; 1 µM
Source text: as §1

T1 sequence (P18242 65-410): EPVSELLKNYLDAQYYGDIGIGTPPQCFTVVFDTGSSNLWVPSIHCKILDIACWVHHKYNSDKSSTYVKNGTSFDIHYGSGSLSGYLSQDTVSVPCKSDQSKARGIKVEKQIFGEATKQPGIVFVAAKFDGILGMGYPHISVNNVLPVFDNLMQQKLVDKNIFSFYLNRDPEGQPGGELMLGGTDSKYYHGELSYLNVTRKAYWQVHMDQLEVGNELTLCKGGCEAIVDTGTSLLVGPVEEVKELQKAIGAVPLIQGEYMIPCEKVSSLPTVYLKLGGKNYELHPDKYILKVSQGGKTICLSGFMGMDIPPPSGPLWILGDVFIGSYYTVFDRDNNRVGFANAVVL

Structure (SMILES) | Anti-inflammatory (Cf1 male mice [2]) | LD50 at 336 h (in vivo) | activity at 5 µM (Cathepsin) | Writhing (Cf1 male mice [3]) | Anti-arthritic (Sprague Dawley male rats) | PMNs cAMP (cAMP) | Rat PMNs Acid Phoph. (Acid phosphatase [4]) | Mouse Liver Acid Phosph. (Acid phosphatase [5]) | pIC50 (Elastase [7]) | pIC50 (Aryl sulphatase [8]) | Anti-Inflammatory Activity Sprague Dawley Rats (Sprague Dawley Rats) | pIC50 (Acid phosphatase [9]) | pIC50 [10] | pIC50 (Trypsin [11]) | also measured
COc1ccc2c(c1)c(CC(=O)O)c(C)n2C(=O)c1ccc(Cl)cc1 [Indomethacin, reference compound] | 22 % Control | 28 mg/kg | 100% | 43 % Control | 27 % Control | 80 % Control | 100 + 2 % Control | 86 + 4 % Control | – | – | – | – | – | – | activity at 5 µM (Cathepsin D [1]; pH 5, read-out: Mouse Liver Cathep.): 67%
CCNC(=O)[BH2-][NH+](C)C [Compound 9, Dimethylamine-N-ethylcarbamoylborane] | – | – | – | – | – | – | – | – | 5.48 | 5.03 | 41 % Control | 5.95 | 5.28 | 5.69 | pIC50 (Cathepsin D [6]): 5.71; pIC50 (Trypsin [12]): 5.36; pIC50 (Aryl sulphatase [13]): 5.12; pIC50 [14]: 5.09; response vs control in vivo at 8 mg/kg (Cf1 male mice [15]; Mus musculus, ip): 26.9%; pIC50 (Acid phosphatase [16]): 5.07; pIC50 (5'-lipoxygenase): 4.36; pIC50 (Elastase [17]): 6.01
C[N+](C)(C)[BH2-]C(=O)O [Compound 3, Trimethylamine-carboxyborane] | 79 % Control | 1800 mg/kg | 14% | 29 % Control | 53 % Control | 99 % Control | 50 + 3 % Control | 82 + 5 % Control | 5.67 | 5.13 | 59 % Control | 5.98 | 5.55 | 5.56 | activity at 5 µM (Cathepsin D [1]; pH 5, 5 × 10^-6 M, N=6, read-out: Mouse Liver Cathep.): 56%; pIC50 (Cathepsin D [18]): 5.17; Anti-Inflammatory Activity Mice (Cf1 male mice [2]; Table IV, 8 mg/kg I.P.): 58 % Control; Writhing Reflex Cf1 Mice (Cf1 male mice [15]): 11.5 % Control; Hepatic Oxidative Phosphorylation Succinate State 3 [19]: 63 + 4 % Control; Hepatic Oxidative Phosphorylation Succinate State 4 [19]: 122 + 14 % Control; Hepatic Oxidative Phosphorylation alpha-Ketoglutrate State 3 [19]: 70 + 20 % Control; Hepatic Oxidative Phosphorylation alpha-Ketoglutrate State 4 [19]: 127 + 22 % Control
